Source: ChEMBL document CHEMBL1136351, “Synthesis and DNA-binding affinity of A-C8/C-C2 alkoxyamido-linked pyrrolo[2,1-c][1,4]benzodiazepine dimers” (Bioorg Med Chem Lett, 2003)

Legend:
Assay type in all cases: functional
Conditions in all cases: Bos taurus
Nucleic Acid [1] = test: Thermal denaturation in calf thymus DNA after incubation at 37 degrees C Centigrade for 18 hr at PBD/DNA 1:5 molar ratio
Nucleic Acid [2] = test: Thermal denaturation in calf thymus DNA after incubation at 37 degrees C for 0h at PBD/DNA 1:5 molar ratio
Nucleic Acid [3] = test: Thermal denaturation in calf thymus DNA after incubation at 37 degree C for 18 hr at PBD/DNA 1:5 molar ratio
Nucleic Acid [4] = test: Thermal denaturation in calf thymus DNA after incubation at 37 degrees C for 18 hr at PBD/DNA 1:5 molar ratio

Compound `COc1cc2c(cc1OCC(=O)N[C@H]1C[C@H]3C=Nc4cc(OCc5ccccc5)c(OC)cc4C(=O)N3C1)N=C[C@@H]1CCCN1C2=O` has a ΔTm (Nucleic Acid [1]) of 4.7 °C and a ΔTm (Nucleic Acid [2]) of 0.9 °C.
Compound `COc1cc2c(cc1O)N=C[C@@H]1CCCN1C2=O` has a ΔTm (Nucleic Acid [3]) of 0.7 °C and a ΔTm (Nucleic Acid [2]) of 0.3 °C.
`COc1cc2c(cc1OCCCC(=O)N[C@H]1C[C@H]3C=Nc4cc(OCc5ccccc5)c(OC)cc4C(=O)N3C1)N=C[C@@H]1CCCN1C2=O` showed a ΔTm (Nucleic Acid [4]) of 9.3 °C and a ΔTm (Nucleic Acid [2]) of 3.7 °C.
For `COc1cc2c(cc1OCCCCC(=O)N[C@H]1C[C@H]3C=Nc4cc(OCc5ccccc5)c(OC)cc4C(=O)N3C1)N=C[C@@H]1CCCN1C2=O`, the ΔTm (Nucleic Acid [4]) was 10.9 °C and the ΔTm (Nucleic Acid [2]) was 6.1 °C.
